We go through 2 molecules from patent US11065252B2, “Treatment of rosacea with P38 and Erk kinase pathway inhibitors” (Albany Medical College, priority 2016, dated 2021).

Series [1] deals with subjects with acute coronary syndrome. To be noted: phase III trial; cited from earlier work.
The test system of series [2] is Balb/c mice. Description: Skin safety of daily topical cream on shaved backs of mice. The format is in vivo. The text has this: Wild type Balb/c mice of 6-8 weeks of age were used to determine the safety and efficacy of application of a cream containing an inhibitor of the Erk pathway. Animal studies were approved by the Albany Medical Center Institutional Review Board. The fur of the back was removed with an application of Nair. Three days later, three marks were made on the backs of the mice and treated with a cream containing trametinib (an Erk pathway inhibitor), vehicle cream (without an active ingredient) or nothing daily for five days. One hour after the last application, the spots were treated with one cream or the other, and cutaneous inflammation was induced via exposure to 1-Fluoro-2,4-dinitrobenzene (hereafter DNFB). Six hours later mice were euthanized and the skin spots were processed for histological analysis.
More specifically, to determine whether a cream containing an inhibitor of the Erk activation pathway would effectively penetrate the skin and protect it from an external injury, four mice were treated once a day for five consecutive days on a shaved back with a cream containing 0.1 mg/ml trametinib and cream without drug as described in FIG. 4. Regions labeled ‘U’ were left untreated and represent the baseline normal skin. […] Regions labeled ‘T’ were treated with a cream containing trametinib as the active ingredient. […]

Consider `Cc1c(F)cc(C(=O)NC2CC2)cc1-c1ccc(C(=O)NCC(C)(C)C)cn1` [Losmapimod], for which, in series [1], the “Efficacy in reducing the incidence of cardiovascular events” value was “did not demonstrate efficacy” and the “Safety profile in trial” value is given as “good safety profile”.
`CC(=O)Nc1cccc(-n2c(=O)n(C3CC3)c(=O)c3c(Nc4ccc(I)cc4F)n(C)c(=O)c(C)c32)c1` [trametinib, Trametinib]: the “Skin changes after application of cream (photographs)” value in series [2] (cream containing 0.1 mg/ml trametinib, topical, once a day for five days, shaved back) is “No skin changes”. In addition, in series [2] (topical cream containing trametinib, five days), the “Acute adverse effect in the skin” value is recorded as “does not elicit an acute adverse effect”.
